Publication PMC4032254, “Targeting of the MYCN Protein with Small Molecule c-MYC Inhibitors” (PLoS ONE, 2014)

Tests used:
Tet21N cells = assay: Apoptosis in Tet21N cells with doxycycline regulated MYCN expression; type: cell-based, human; settings: 48 hour treatment
Text: GAPDH was used as loading control. […] Error bars indicate standard error. (TIF) Click here for additional data file.

MYCN protein levels = assay: Western blot of MYCN protein levels in SK-N-BE(2) cells; type: cell-based, human; settings: 48 hours
Protocol: In order to determine the effect of the other compounds analyzed in this study on the MYCN protein levels, SK-N-BE(2) NB cells were treated with as a high concentration of each compound as possible without resulting in excessive cell death. […] Membranes were probed with antibodies recognizing MYCN and GAPDH. The blots are representative from three independent experiments. Whole cell extracts were prepared and lysed using RIPA-buffer. Western blot analysis was performed as previously described. In brief, membranes were probed with a mouse anti-MYCN antibody (B8.4.B, St Cruz Bio), MAX antibody (C-2, St Cruz Bio) and an HRP-conjugated anti-mouse antibody (DAKO) was used as secondary antibody. The membranes were developed using enhanced chemiluminescence substrate (ECL, Amersham).

[1] = test system: xenograft models of prostate cancer; settings: cited from earlier work
MYCN/MAX interaction = biological target: T1, MYCN/MAX interaction (Homo sapiens, UniProt P04198); assay: Proximity ligation assay (PLA) for MYCN/MAX interaction in SMS-KCN69n cells; type: cell-based; settings: 6 hours treatment, compared to DMSO
T1 construct: endogenous in cells; host or cells: SMS-KCN69n (human MYCN-amplified neuroblastoma)
T1 sequence (P04198 1-464): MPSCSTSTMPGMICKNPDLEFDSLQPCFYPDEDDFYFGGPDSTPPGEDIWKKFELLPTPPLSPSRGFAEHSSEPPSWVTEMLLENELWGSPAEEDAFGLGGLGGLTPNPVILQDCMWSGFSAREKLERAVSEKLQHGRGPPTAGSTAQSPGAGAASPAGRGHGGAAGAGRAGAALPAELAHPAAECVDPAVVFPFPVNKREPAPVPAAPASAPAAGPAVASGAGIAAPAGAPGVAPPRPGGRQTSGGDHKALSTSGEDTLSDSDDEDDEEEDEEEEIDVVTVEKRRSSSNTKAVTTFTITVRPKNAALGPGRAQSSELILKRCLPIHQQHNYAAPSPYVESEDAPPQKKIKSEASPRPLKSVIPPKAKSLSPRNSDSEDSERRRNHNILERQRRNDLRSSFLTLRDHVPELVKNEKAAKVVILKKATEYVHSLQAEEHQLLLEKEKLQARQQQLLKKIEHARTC
Text: To investigate if the other small molecules also have an effect on MYCN/MAX dimerization we performed a proximity ligation assay (PLA) using MYCN-amplified SMS-KCN69n NB cells. […] No signal was detected in any of the experimental negative controls (Figure S4).
Figure 3 Reduction of MYCN/MAX interaction in NB cells after treatment with small molecules. A) Proximity ligation assay (PLA) for MYCN/MAX interaction after treatment of SMS-KCN69n cells with the different small molecules at the indicated concentrations for 6 hours. […] DNA is stained with DAPI. Scale bar: […]. The pictures are representative from three independent experiments. B) Quantification of the PLA signals per cell after treatment with the different compounds. Error bars indicate standard error of the mean.
40×10^3 SMS-KCN69n cells were seeded on collagen coated coverslips and grown for 24 hours and treated for 6 hours the next day. After 6 hours the cells were washed in PBS and treated as previously described. The PLA assay was performed after manufacturer's instructions with the Duolink kit (Olink, Uppsala, Sweden). The cells were incubated with primary antibody against MYCN (NCMII100, St Cruz Bio) 1∶500 and Max (C-17, St Cruz Bio) 1∶500 for 1 hour in a humidity chamber at 37°C, which were diluted in antibody diluent provided by the manufacturer. MYCN (1∶500) and FAS (A-20, St Cruz Bio) 1∶500 as well as MAX (1∶500) and GFP (C-2, St Cruz Bio) 1∶500 antibodies were used in combination in order to test for any unspecific binding of the secondary antibodies or unspecific signals. […]
The confocal images of the cells were acquired at 63× magnification using a motorized axiovert fluorescence microscope 200 M LCI (Zeiss GmBH, Göttingen, Germany) including a CSU10 Yokogawa head; a multilens/multipinhole array aperture (Yokogawa, Japan), an ORCA ER cold CCD camera; detector array 1344×1024px (Hammamatsu, Japan) and two continuous wave diode-pumped solid-state (DPSS) lasers for fluorescence excitation (Cobolt, Sweden); Cobolt Calypso 491 nm DPSS (excitation of green PLA fluorophore) and Cobolt Jive 561 nm DPSS (excitation of Alexa Fluor 568). […] A total amount of at least 120 cells were analyzed for all compounds. The PLA signals were analyzed using the open source image analysis program Image J (NIH, Bethseda, USA) and the amount of PLA signal per cell was calculated. Two persons analyzed the images independently in a blind fashion.
In order to quantify the PLA signal from the total z-depth of each cell confocal z-stacks was projected in z and identically processed regarding background subtraction. The PLA signal was then quantified blindly and automatically using a find maxima-based algorithm in ImageJ (plugin routine developed by Dr. E. Flaberg and Professor L. Szekely, KI and available upon request). […]

SK-N-BE(2) cells = assay: Neuronal differentiation of NB cells (neurite outgrowth); type: cell-based, human; settings: sub-lethal concentrations, 14-15 days
Protocol: SK-N-BE(2) cells were grown for 15 days in 6 well-plates and treated twice per week with DMSO or compound, with and without NGF. Differentiation was assessed based on number and length of neuronal outgrowths using a phase contrast microscope (Axiovert 40 CFL, Zeiss) and the Axiovision Rel. 4.8 software.
Phase contrast micrographs show representative pictures from one out of 3 to 5 independent experiments.

[2] = test system: Burkitt's lymphoma cell line xenograft; design: method as in PMID 20801893; settings: cited from earlier work

| SMILES | apoptosis induction in cells with high vs low MYCN (Tet21N cells) | effect on MYCN protein levels (MYCN protein levels) | antitumor activity in prostate cancer xenografts [1] | effect on MYCN/MAX interaction (PLA) (MYCN/MAX interaction) | morphological neuronal differentiation (SK-N-BE(2) cells) | antitumor activity in Burkitt's lymphoma xenograft [2] |
| --- | --- | --- | --- | --- | --- | --- |
| CCc1ccc(C=C2SC(=S)NC2=O)cc1 [Compound 10058-F4, [Z,E]-5-[4-ethylbenzylidine]-2-thioxothiazolidin-4-one] | cells with low MYCN-levels were less sensitive | able to efficiently decrease the MYCN protein levels | no significant antitumor activity | reduced the MYCN/MAX interaction |  |  |
| O=[N+]([O-])c1ccc(Nc2ccccc2-c2ccccc2)c2nonc12 [Compound 10074-G5] | MYCN dependent induction of apoptosis | decreased the MYCN protein levels at lower concentrations than 10058-F4 |  | reduced the MYCN/MAX interaction | evident neurite outgrowth | failed to show any antitumor activity |
